How the values were obtained:
Type in all cases: in vivo, Wistar rats
[1] = tested on: STZ induced diabetic rats; test: Study No 2: blood glucose in STZ induced diabetic rats (HCQ with vildagliptin and saxagliptin); conditions: for Plasma glucose concentration: oral
Method: In this experiment 96 Wistar rats weighing 150-200 g of either sex were divided randomly into 16 groups consisting of 6 rats each. The study drugs were dissolved in water/suspended in vehicle [0.1% w/v suspension of Tween 80 and carboxymethylcellulose (CMC) in water] and administered orally for 28 days. Group 1 (normal vehicle control) consisted of normal rats that neither received Streptozotocin (STZ) nor any test drug; Group 2 served as Streptozotocin induced diabetic control [Diabetes was induced in rats by single administration of Streptozotocin (55 mg/kg/i.p.) dissolved in 0.1 M-citrate buffer, pH 4.5]. Forty-eight hours later, blood samples were collected and glucose levels were determined to confirm the development of diabetes. Only animals showing hyperglycaemia (blood glucose levels>250 mg/dl) were considered as diabetic and received vehicle orally; Group 3 was diabetic rats treated with hydroxychloroquine (HCQ) (22.5 mg/kg); Group 4 was diabetic rats treated with HCQ (45 mg/kg), Group 5 was diabetic rats treated with vildagliptin (VG) 6 mg/kg; Group 6 was diabetic rats treated with VG 12 mg/kg; Group 7 was diabetic rats treated with HCQ 22.5 mg/kg+VG 12 mg/kg and Group 8 was diabetic rats treated with combination of HCQ 45 mg/kg and VG 6 mg/kg; Group 9 was diabetic rats treated with saxagliptin (SG) 0.3 mg/kg; Group 10 was diabetic rats treated with Saxagliptin (SG) 0.6 mg/kg; Group 11 was diabetic rats treated with combination of HCQ 45 mg/kg+SG 0.3 mg/kg; Group 12 was diabetic rats treated with combination of HCQ 22.5 mg/kg+SG 0.6 mg/kg; Group 13 was diabetic rats treated with combination of HCQ 22.5 mg/kg and VG 6 mg/kg; Group 14 was diabetic rats treated with combination of HCQ 45 mg/kg and VG 12 mg/kg; Group 15 was diabetic rats treated with combination of HCQ 22.5 mg/kg+SG 0.3 mg/kg; Group 16 was diabetic rats treated with combination of HCQ 45 mg/kg+SG 0.6 mg/kg.
Blood glucose level was measured in normal and experimental rats at 0, 7th, 14th, 21st and 28th day of administration.

[2] = tested on: STZ-induced diabetic rats; test: Study No 2: biochemical parameters in STZ-induced diabetic rats; conditions: for Creatinine / HbA1c / Total Protein / Urea: after 28 days, oral
[3] = tested on: STZ-induced diabetic rats; test: Study No 2: body weight, water intake and food intake in STZ-induced diabetic rats; conditions: for AVERAGE FOOD INTAKE / AVERAGE WATER INTAKE / Body Weight: oral
[4] = Day 0, HCQ 22.5, VG 6, SG 0.3 mg/kg alone, HCQ+VG 22.5+6, HCQ+SG 22.5+0.3 mg/kg
[5] = Day 0, HCQ 45, VG 12, SG 0.6 mg/kg alone, HCQ+VG 45+12, HCQ+SG 45+0.6 mg/kg
[6] = Day 7, HCQ 22.5, VG 6, SG 0.3 mg/kg alone, HCQ+VG 22.5+6, HCQ+SG 22.5+0.3 mg/kg
[7] = Day 7, HCQ 45, VG 12, SG 0.6 mg/kg alone, HCQ+VG 45+12, HCQ+SG 45+0.6 mg/kg
[8] = Day 14, HCQ 22.5, VG 6, SG 0.3 mg/kg alone, HCQ+VG 22.5+6, HCQ+SG 22.5+0.3 mg/kg
[9] = Day 14, HCQ 45, VG 12, SG 0.6 mg/kg alone, HCQ+VG 45+12, HCQ+SG 45+0.6 mg/kg
[10] = Day 21, HCQ 22.5, VG 6, SG 0.3 mg/kg alone, HCQ+VG 22.5+6, HCQ+SG 22.5+0.3 mg/kg
[11] = Day 21, HCQ 45, VG 12, SG 0.6 mg/kg alone, HCQ+VG 45+12, HCQ+SG 45+0.6 mg/kg
[12] = Day 28, HCQ 22.5, VG 6, SG 0.3 mg/kg alone, HCQ+VG 22.5+6, HCQ+SG 22.5+0.3 mg/kg
[13] = Day 28, HCQ 45, VG 12, SG 0.6 mg/kg alone, HCQ+VG 45+12, HCQ+SG 45+0.6 mg/kg
[14] = HCQ 22.5, VG 6, SG 0.3 mg/kg alone, HCQ+VG 22.5+6, HCQ+SG 22.5+0.3 mg/kg/day
[15] = HCQ 45, VG 12, SG 0.6 mg/kg alone, HCQ+VG 45+12, HCQ+SG 45+0.6 mg/kg/day
[16] = Day 0, HCQ 22.5, VG 6, SG 0.3 mg/kg alone, HCQ+VG 22.5+6, HCQ+SG 22.5+0.3 mg/kg/day
[17] = Day 0, HCQ 45, VG 12, SG 0.6 mg/kg alone, HCQ+VG 45+12, HCQ+SG 45+0.6 mg/kg/day
[18] = Day 7, HCQ 22.5, VG 6, SG 0.3 mg/kg alone, HCQ+VG 22.5+6, HCQ+SG 22.5+0.3 mg/kg/day
[19] = Day 7, HCQ 45, VG 12, SG 0.6 mg/kg alone, HCQ+VG 45+12, HCQ+SG 45+0.6 mg/kg/day
[20] = Day 14, HCQ 22.5, VG 6, SG 0.3 mg/kg alone, HCQ+VG 22.5+6, HCQ+SG 22.5+0.3 mg/kg/day
[21] = Day 14, HCQ 45, VG 12, SG 0.6 mg/kg alone, HCQ+VG 45+12, HCQ+SG 45+0.6 mg/kg/day
[22] = Day 21, HCQ 22.5, VG 6, SG 0.3 mg/kg alone, HCQ+VG 22.5+6, HCQ+SG 22.5+0.3 mg/kg/day
[23] = Day 21, HCQ 45, VG 12, SG 0.6 mg/kg alone, HCQ+VG 45+12, HCQ+SG 45+0.6 mg/kg/day
[24] = Day 28, HCQ 22.5, VG 6, SG 0.3 mg/kg alone, HCQ+VG 22.5+6, HCQ+SG 22.5+0.3 mg/kg/day
[25] = Day 28, HCQ 45, VG 12, SG 0.6 mg/kg alone, HCQ+VG 45+12, HCQ+SG 45+0.6 mg/kg/day
[26] = monotherapies, all the tested dose levels except HCQ (22.5 mg/kg), p≦0.05

Molecule N#C[C@@H]1C[C@@H]2C[C@@H]2N1C(=O)[C@@H](N)C12CC3CC(CC(O)(C3)C1)C2 [SG, Saxagliptin] has a Plasma glucose concentration [1, 4] of 288.83 ± 26.19 mg/dL, a Plasma glucose concentration [1, 5] of 285.5 ± 33.58 mg/dL and a Plasma glucose concentration [1, 6] of 246.5 ± 4.89 mg/dL. It also gave a Plasma glucose concentration [1, 7] of 146.5 ± 4.89 mg/dL, a Plasma glucose concentration [1, 8] of 226.33 ± 12.36 mg/dL and a Plasma glucose concentration [1, 9] of 138.5 ± 7.23 mg/dL. It also gave a Plasma glucose concentration [1, 10] of 194 ± 38.79 mg/dL, a Plasma glucose concentration [1, 11] of 137.5 ± 9.44 mg/dL and a Plasma glucose concentration [1, 12] of 194.17 ± 17.17 mg/dL. For the same molecule, the Plasma glucose concentration [1, 13] was 161 ± 9.67 mg/dL, the Creatinine [2, 14] was 1.89 ± 0.23 mg/dL and the HbA1c [2, 14] was 10.79 ± 1.05 %. The “Total Protein” value [2, 14] was 6.55 ± 0.37 gm/dl, the Urea [2, 14] was 22.74 ± 2.71 mg/dL and the Creatinine [2, 15] was 1.81 ± 0.27 mg/dL. For the same molecule, the HbA1c [2, 15] was 9.65 ± 1.51 %, the “Total Protein” value [2, 15] was 6.62 ± 0.49 gm/dl and the Urea [2, 15] was 21.26 ± 2.41 mg/dL. For the same molecule, the “AVERAGE FOOD INTAKE” value [3, 16] was 12.13 g, the “AVERAGE WATER INTAKE” value [3, 16] was 23.71 mL and the “Body Weight” value [3, 16] was 208.33 ± 6.15 g. For the same molecule, the “AVERAGE FOOD INTAKE” value [3, 17] was 12.45 g, the “AVERAGE WATER INTAKE” value [3, 17] was 24.86 mL and the “Body Weight” value [3, 17] was 211 ± 7.38 g. The “AVERAGE FOOD INTAKE” value [3, 18] was 14.00 g, the “AVERAGE WATER INTAKE” value [3, 18] was 21.12 mL and the “Body Weight” value [3, 18] was 199.5 ± 7.69 g. For the same molecule, the “AVERAGE FOOD INTAKE” value [3, 19] was 14.45 g, the “AVERAGE WATER INTAKE” value [3, 19] was 21.11 mL and the “Body Weight” value [3, 19] was 203.17 ± 7.47 g. For the same molecule, the “AVERAGE FOOD INTAKE” value [3, 20] was 12.54 g, the “AVERAGE WATER INTAKE” value [3, 20] was 21.67 mL and the “Body Weight” value [3, 20] was 197.83 ± 8.06 g. For the same molecule, the “AVERAGE FOOD INTAKE” value [3, 21] was 12.00 g, the “AVERAGE WATER INTAKE” value [3, 21] was 21.89 mL and the “Body Weight” value [3, 21] was 201.17 ± 8.52 g. For the same molecule, the “AVERAGE FOOD INTAKE” value [3, 22] was 13.05 g, the “AVERAGE WATER INTAKE” value [3, 22] was 25.17 mL and the “Body Weight” value [3, 22] was 196.33 ± 8.36 g. The “AVERAGE FOOD INTAKE” value [3, 23] was 13.26 g, the “AVERAGE WATER INTAKE” value [3, 23] was 26.00 mL and the “Body Weight” value [3, 23] was 199.83 ± 8.35 g. The “AVERAGE FOOD INTAKE” value [3, 24] was 14.25 g, the “AVERAGE WATER INTAKE” value [3, 24] was 25.19 mL and the “Body Weight” value [3, 24] was 193.83 ± 8.13 g. For the same molecule, the “AVERAGE FOOD INTAKE” value [3, 25] was 14.00 g, the “AVERAGE WATER INTAKE” value [3, 25] was 25.12 mL and the “Body Weight” value [3, 25] was 198 ± 8.74 g.
N#C[C@@H]1CCCN1C(=O)CNC12CC3CC(CC(O)(C3)C1)C2 [VG, Vildagliptin] was tested, and the Plasma glucose concentration [1, 4] was 296 ± 21.59 mg/dL, the Plasma glucose concentration [1, 5] was 288 ± 11.58 mg/dL and the Plasma glucose concentration [1, 6] was 242.17 ± 40.58 mg/dL. The Plasma glucose concentration [1, 7] was 227 ± 40.57 mg/dL, the Plasma glucose concentration [1, 8] was 199.83 ± 35.33 mg/dL and the Plasma glucose concentration [1, 9] was 188.83 ± 34.23 mg/dL. The Plasma glucose concentration [1, 10] was 191.33 ± 22.46 mg/dL, the Plasma glucose concentration [1, 11] was 173.5 ± 15.6 mg/dL and the Plasma glucose concentration [1, 12] was 182.67 ± 33.01 mg/dL. For the same molecule, the Plasma glucose concentration [1, 13] was 167.5 ± 9.12 mg/dL, the “blood glucose levels as compared to diabetic control group” value ([1]; alone at therapeutic equivalent doses, day 28) was “significant improvement” and the Creatinine [2, 14] was 1.78 ± 0.14 mg/dL. For the same molecule, the HbA1c [2, 14] was 10.76 ± 0.97 %, the “Total Protein” value [2, 14] was 7.08 ± 0.55 gm/dl and the Urea [2, 14] was 21.48 ± 4.35 mg/dL. For the same molecule, the Creatinine [2, 15] was 1.69 ± 0.21 mg/dL, the HbA1c [2, 15] was 9.97 ± 0.95 % and the “Total Protein” value [2, 15] was 7.15 ± 0.19 gm/dl. For the same molecule, the Urea [2, 15] was 20.23 ± 1.89 mg/dL, the “HbA1c levels as compared to diabetic control” value ([2]; all tested doses, 28 days, p≦0.05) was “significantly (p≦0.05) reduced” and the “total protein level as compared to the diabetic control group” value ([2]; monotherapies at all doses, 28 days, p≦0.05) was “significant rise”. For the same molecule, the “creatinine levels as compared to diabetic control group” value [2, 26] was “significant reduction”, the “urea levels as compared to diabetic control group” value [2, 26] was “significant reduction” and the “AVERAGE FOOD INTAKE” value [3, 16] was 11.40 g. The “AVERAGE WATER INTAKE” value [3, 16] was 25.00 mL, the “Body Weight” value [3, 16] was 195 ± 7.18 g and the “AVERAGE FOOD INTAKE” value [3, 17] was 11.90 g. The “AVERAGE WATER INTAKE” value [3, 17] was 24.35 mL, the “Body Weight” value [3, 17] was 197.5 ± 6.35 g and the “AVERAGE FOOD INTAKE” value [3, 18] was 13.00 g. The “AVERAGE WATER INTAKE” value [3, 18] was 22.12 mL, the “Body Weight” value [3, 18] was 179.17 ± 11.27 g and the “AVERAGE FOOD INTAKE” value [3, 19] was 13.50 g. The “AVERAGE WATER INTAKE” value [3, 19] was 22.19 mL, the “Body Weight” value [3, 19] was 189 ± 3.52 g and the “AVERAGE FOOD INTAKE” value [3, 20] was 12.10 g. For the same molecule, the “AVERAGE WATER INTAKE” value [3, 20] was 21.32 mL, the “Body Weight” value [3, 20] was 182.83 ± 12.66 g and the “AVERAGE FOOD INTAKE” value [3, 21] was 12.00 g. For the same molecule, the “AVERAGE WATER INTAKE” value [3, 21] was 22.11 mL, the “Body Weight” value [3, 21] was 187.67 ± 6.38 g and the “AVERAGE FOOD INTAKE” value [3, 22] was 12.90 g. For the same molecule, the “AVERAGE WATER INTAKE” value [3, 22] was 25.12 mL, the “Body Weight” value [3, 22] was 185.67 ± 11.86 g and the “AVERAGE FOOD INTAKE” value [3, 23] was 13.05 g. The “AVERAGE WATER INTAKE” value [3, 23] was 26.13 mL, the “Body Weight” value [3, 23] was 186.5 ± 8.83 g and the “AVERAGE FOOD INTAKE” value [3, 24] was 14.33 g. For the same molecule, the “AVERAGE WATER INTAKE” value [3, 24] was 26.31 mL, the “Body Weight” value [3, 24] was 189.5 ± 11.81 g and the “AVERAGE FOOD INTAKE” value [3, 25] was 14.30 g. For the same molecule, the “AVERAGE WATER INTAKE” value [3, 25] was 25.71 mL, the “Body Weight” value [3, 25] was 185.67 ± 11.69 g and the “body weight as compared to diabetic control group” value ([3]; monotherapies, p≦0.05) was “reduction was significantly less”.

Source: US20140128402A1, “PHARMACEUTICAL COMBINATION” (IPCA Laboratories Limited, priority 2011, published 2014)
